Values after ≈ are worked out from the molar mass of the structure shown. Where a name gives a salt, the structure may show the parent alone. Read-outs that look alike come from different tables or passages of the source.
Tests used:
in vitro = conditions: dog
[1] = test system: highly pathogenic avian influenza A/chicken/Egypt/N12640A/2016 (H5N1); assay: microbe, parasite or virus in culture; assay type: cell-based, influenza A/H5N1 virus
influenza A/H5N1 virus [2] = assay: microbe, parasite or virus in culture; assay type: cell-based
MDCK cells = conditions: dog
influenza A/H5N1 virus [3] = assay: microbe, parasite or virus in culture; assay type: cell-based; conditions: H5N1, MDCK, read-out: Viral inhibition percentage, Virucidal
influenza A/H1N1 = assay: Plaque reduction assay, A/H1N1; assay type: cell-based, influenza A/H1N1 virus; conditions: A/H1N1, MDCK, low non-toxic concentrations, Fig. 4
influenza A/H5N1 virus [4] = assay: microbe, parasite or virus in culture; assay type: cell-based; conditions: H5N1, MDCK, read-out: Viral inhibition percentage, Viral Replication
influenza A/H5N1 = assay type: cell-based, influenza A/H5N1 virus
[5] = cited from earlier work
[6] = test system: seasonal influenza A/Egypt/NRC098/2019(H1N1); assay: microbe, parasite or virus in culture; assay type: cell-based; conditions: H1N1, MDCK, 72 h
[7] = test system: IAV (A/Puerto Rico/8/1934(H1N1)); conditions: A/Puerto Rico/8/1934(H1N1) in mice; cited from earlier work
[8] = Influenza A virus, H5N1, MDCK, 72 h
[9] = Influenza A virus, H5N1, MDCK, read-out: Viral inhibition percentage, Viral Adsorption

For `C[n+]1cccc(C(=O)[O-])c1` [Trigonelline HCl], the CC50 (in vitro) was over 10000 µg/mL.

For `CN1C2CC(OC(=O)C(CO)c3ccccc3)CC1C1OC12` (single isomer, unassigned; (-)) [(-)Scopolamine HCl], the IC50 [1, 8] was 360 µg/mL.

With `C=C[C@H]1C[N@@]2CC[C@H]1C[C@@H]2[C@@H](O)c1ccnc2ccc(OC)cc12` [Quinidine Sulphate, Quinidine sulphate] the CC50 (in vitro) was over 10000 µg/mL.

In the case of `COc1cc2c(c(OC)c1OC)-c1ccc(OC)c(=O)cc1[C@@H](NC(C)=O)CC2` [Colchicine, (S)-N-(1,2,3,10-tetramethoxy-9-oxo-5,6,7,9-tetrahydrobenzo[a]heptalen-7-yl)acetamide], the “Viral inhibition percentage, Viral Adsorption” value (influenza A/H5N1 virus [2]) is reported as 73.05%, the inhibition at 1 µg/mL (influenza A/H5N1 virus [2]; [9]) is reported as 55% and the inhibition at 10 µg/mL (influenza A/H5N1 virus [2]; [9]) is reported as 64.1%. It also gave an inhibition at 100 µg/mL (influenza A/H5N1 virus [2]; [9]) of 73%, a CC50 (MDCK cells) of 3370 µg/mL (≈ 8440 µM) and an inhibition at 1 µg/mL (influenza A/H5N1 virus [3]) of 25%. The inhibition at 10 µg/mL (influenza A/H5N1 virus [3]) was 38%, the inhibition at 100 µg/mL (influenza A/H5N1 virus [3]) was 47.1% and the CC50 (in vitro) was 2380 µg/mL (≈ 5960 µM). For the same compound, the “reduction of viral titers (in words)” value (influenza A/H1N1) was “high capacity to reduce viral titers”, the inhibition at 1 µg/mL (influenza A/H5N1 virus [4]) was 85.7% and the inhibition at 10 µg/mL (influenza A/H5N1 virus [4]) was 87%. For the same compound, the inhibition at 100 µg/mL (influenza A/H5N1 virus [4]) was 91.1%, the “reduction of viral titers (in words)” value (influenza A/H5N1) was “high capacity to reduce viral titers” and the toxic range [5] was 0.6 mg.

Work on `CN1C2CCC1CC(OC(=O)C(CO)c1ccccc1)C2` (stereo not shown) [Atropine sulphate] yielded an inhibition at 1 µg/mL (influenza A/H5N1 virus [2]; [9]) of 36.2%, an inhibition at 10 µg/mL (influenza A/H5N1 virus [2]; [9]) of 45.2% and an inhibition at 100 µg/mL (influenza A/H5N1 virus [2]; [9]) of 52.4%. For the same compound, the inhibition at 1 µg/mL (influenza A/H5N1 virus [3]) was 90.5%, the inhibition at 10 µg/mL (influenza A/H5N1 virus [3]) was 97.6% and the inhibition at 100 µg/mL (influenza A/H5N1 virus [3]) was 100%. For the same compound, the IC50 [1, 8] was 2.26 µg/mL, the IC50 [6] was 0.204 µg/mL and the “reduction of viral titers (in words)” value (influenza A/H1N1) was “high capacity to reduce viral titers”. The inhibition at 1 µg/mL (influenza A/H5N1 virus [4]) was 32.8%, the inhibition at 10 µg/mL (influenza A/H5N1 virus [4]) was 41.2% and the inhibition at 100 µg/mL (influenza A/H5N1 virus [4]) was 52.9%. For the same compound, the “reduction of viral titers (in words)” value (influenza A/H5N1) was “high capacity to reduce viral titers”.

`CC(=O)N[C@H]1[C@H]([C@H](O)[C@H](O)CO)OC(C(=O)O)=C[C@@H]1N=C(N)N` [Zanamivir] showed an IC50 [1, 8] of 0.358 µg/mL (≈ 1.08 µM), a CC50 (in vitro) of over 10000 µg/mL and an IC50 [6] of 0.265 µg/mL (≈ 0.797 µM).

`CC[C@@H]1C(=O)OC[C@@H]1Cc1cncn1C` [Pilocarpine HCl] gave an inhibition at 10 µg/mL (influenza A/H5N1 virus [2]; [9]) of 37.8%, an inhibition at 100 µg/mL (influenza A/H5N1 virus [2]; [9]) of 44.6% and an inhibition at 1000 µg/mL (influenza A/H5N1 virus [2]; [9]) of 56.9%. The inhibition at 10 µg/mL (influenza A/H5N1 virus [3]) was 94.9%, the inhibition at 100 µg/mL (influenza A/H5N1 virus [3]) was 99.1% and the inhibition at 1000 µg/mL (influenza A/H5N1 virus [3]) was 100%. It also gave an IC50 [1, 8] of 0.21 µg/mL, a CC50 (in vitro) of 3320 µg/mL and an IC50 [6] of 0.637 µg/mL. The “reduction of viral titers (in words)” value (influenza A/H1N1) was “high capacity to reduce viral titers”, the inhibition at 10 µg/mL (influenza A/H5N1 virus [4]) was 35.3% and the inhibition at 100 µg/mL (influenza A/H5N1 virus [4]) was 46.9%. For the same compound, the inhibition at 1000 µg/mL (influenza A/H5N1 virus [4]) was 53.1% and the “reduction of viral titers (in words)” value (influenza A/H5N1) was “high capacity to reduce viral titers”.

With `COc1ccc(Cc2nccc3cc(OC)c(OC)cc23)cc1OC` [Papaverine HCl] the “anti-influenza activity against A/H5N1 virus (in words)” value [1] was “poor anti-influenza activity” and the CC50 (in vitro) was 274 µg/mL.

With `CN[C@@H](C)[C@H](O)c1ccccc1` [Ephedrine HCl] the IC50 [1] was 186 µg/mL, the IC50 [1, 8] was 186 µg/mL and the CC50 (in vitro) was over 10000 µg/mL.

For `C=C[C@H]1C[N@@]2CC[C@H]1C[C@H]2[C@H](O)c1ccnc2ccc(OC)cc12` [Quinine sulphate], the “anti-influenza activity against A/H5N1 virus (in words)” value [1] is given as “no anti-influenza activity”, the CC50 (in vitro) is given as over 10000 µg/mL and the “antiviral effect in mice (in words)” value [7] is given as “exert an antiviral effect”.

Compound `Cn1c(=O)c2c(ncn2C)n(C)c1=O` [Caffeine] has an IC50 [1, 8] of 85.7 µg/mL (≈ 441 µM) and a CC50 (in vitro) of over 10000 µg/mL.

From article PMC10804494 (BMC Complementary Medicine and Therapies, 2024)
